Test results taken from patent US6693215B2, “Process for the preparation of salts of L-carnitine and alkanoyl L-carnitine with mucic acid” (Sigma-Tau Industrie Farmaceutiche Riunite S.p.A., priority 2002, dated 2004).

Assay: Analytical data of the compound obtained: water solubility
Assay type: physicochemical
Details: product of Example 1, white powder

CC(=O)OC(CC(=O)O)C[N+](C)(C)C.CC(=O)OC(CC(=O)O)C[N+](C)(C)C.O=C([O-])C(O)C(O)C(O)C(O)C(=O)[O-] [Example 1, acetyl L-carnitine mucate (2:1)]
Water solubility: Poorly soluble
